Assay results reported in patent US10206394B2, “Herbicidal compounds” (Syngenta Participations AG, priority 2014, dated 2019).
Read-outs that look alike come from different tables or passages of the source.

What was measured:
Assay in all cases: Glasshouse assay for herbicidal activity (pre- and post-emergence), percentage phytotoxicity
Assay type in all cases: in vivo
[1] = test system: Alopecurus myosuroides (ALOMY); conditions: Alopecurus myosuroides
Summary of the method: (§1)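 Herbicide was applied to potted plants sown in standard soil, one day after sowing for PRE and after about 12 days for POST. Visual percentage damage ratings followed at 15 DAA (POST) and 20 DAA (PRE).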

Avena fatua (AVEFA) = conditions: Avena fatua
Summary of the method: as §1

[2] = test system: Echinochloa crus-galli (ECHCG); conditions: Echinochloa crus-galli
Summary of the method: as §1

Lolium perenne (LOLPE) = conditions: Lolium perenne
Summary of the method: as §1

Cc1cc(-c2ncc(F)cn2)cc(C)c1C1C(=O)CC(CC(=O)NCC(C)(C)C)C1=O (stereo not shown) [Compound B109]
pest or weed control at 63 g/ha ([1]; post-emergence, 360 h, post-emergence, 15 DAA, read-out: Post-emergence herbicidal activity (percentage phytotoxicity) ALOMY POST): 20%
pest or weed control at 63 g/ha ([1]; pre-emergence, 480 h, pre-emergence, 20 DAA, read-out: Pre-emergence herbicidal activity (percentage phytotoxicity) ALOMY PRE): 70%
pest or weed control at 63 g/ha (Avena fatua (AVEFA); post-emergence, 360 h, post-emergence, 15 DAA, read-out: Post-emergence herbicidal activity (percentage phytotoxicity) AVEFA POST): 80%
pest or weed control at 63 g/ha (Avena fatua (AVEFA); pre-emergence, 480 h, pre-emergence, 20 DAA, read-out: Pre-emergence herbicidal activity (percentage phytotoxicity) AVEFA PRE): 100%
pest or weed control at 63 g/ha ([2]; post-emergence, 360 h, post-emergence, 15 DAA, read-out: Post-emergence herbicidal activity (percentage phytotoxicity) ECHCG POST): 90%
pest or weed control at 63 g/ha ([2]; pre-emergence, 480 h, pre-emergence, 20 DAA, read-out: Pre-emergence herbicidal activity (percentage phytotoxicity) ECHCG PRE): 80%
pest or weed control at 63 g/ha (Lolium perenne (LOLPE); post-emergence, 360 h, post-emergence, 15 DAA, read-out: Post-emergence herbicidal activity (percentage phytotoxicity) LOLPE POST): 70%
pest or weed control at 63 g/ha (Lolium perenne (LOLPE); pre-emergence, 480 h, pre-emergence, 20 DAA, read-out: Pre-emergence herbicidal activity (percentage phytotoxicity) LOLPE PRE): 60%

Cc1cc(C)c(C2C(=O)CC(CC(=O)NCC3CCC3)C2=O)c(C)c1 (stereo not shown) [Compound A184]
pest or weed control at 250 g/ha ([1]; post-emergence, 360 h, post-emergence, 250 g/ha, 15 DAA, visual score (100%=total damage; 0%=no damage), read-out: ALOMY POST herbicidal activity (percentage phytotoxicity)): 90%
pest or weed control at 250 g/ha ([1]; pre-emergence, 480 h, pre-emergence, 250 g/ha, 20 DAA, visual score (100%=total damage; 0%=no damage), read-out: ALOMY PRE herbicidal activity (percentage phytotoxicity)): 90%
pest or weed control at 250 g/ha (Avena fatua (AVEFA); post-emergence, 360 h, post-emergence, 250 g/ha, 15 DAA, visual score (100%=total damage; 0%=no damage), read-out: AVEFA POST herbicidal activity (percentage phytotoxicity)): 70%
pest or weed control at 250 g/ha (Avena fatua (AVEFA); pre-emergence, 480 h, pre-emergence, 250 g/ha, 20 DAA, visual score (100%=total damage; 0%=no damage), read-out: AVEFA PRE herbicidal activity (percentage phytotoxicity)): 0%
pest or weed control at 250 g/ha ([2]; post-emergence, 360 h, post-emergence, 250 g/ha, 15 DAA, visual score (100%=total damage; 0%=no damage), read-out: ECHCG POST herbicidal activity (percentage phytotoxicity)): 90%
pest or weed control at 250 g/ha ([2]; pre-emergence, 480 h, pre-emergence, 250 g/ha, 20 DAA, visual score (100%=total damage; 0%=no damage), read-out: ECHCG PRE herbicidal activity (percentage phytotoxicity)): 90%
pest or weed control at 250 g/ha (Lolium perenne (LOLPE); post-emergence, 360 h, post-emergence, 250 g/ha, 15 DAA, visual score (100%=total damage; 0%=no damage), read-out: LOLPE POST herbicidal activity (percentage phytotoxicity)): 80%
pest or weed control at 250 g/ha (Lolium perenne (LOLPE); pre-emergence, 480 h, pre-emergence, 250 g/ha, 20 DAA, visual score (100%=total damage; 0%=no damage), read-out: LOLPE PRE herbicidal activity (percentage phytotoxicity)): 90%

Cc1ccc(-c2cc(C)c(C3C(=O)CC(CC(=O)NCc4cccc(C(F)(F)F)c4)C3=O)c(C)c2)nc1 (stereo not shown) [Compound A158]
pest or weed control at 250 g/ha ([1]; post-emergence, 360 h, Rate 250 g/ha, post-emergence, assessed visually 15 DAA, 100%=total damage, 0%=no damage, read-out: Post-emergence herbicidal activity (percentage phytotoxicity) ALOMY POST): 70%
pest or weed control at 250 g/ha ([1]; pre-emergence, 480 h, Rate 250 g/ha, pre-emergence, assessed visually 20 DAA, 100%=total damage, 0%=no damage, read-out: Pre-emergence herbicidal activity (percentage phytotoxicity) ALOMY PRE): 20%
pest or weed control at 250 g/ha (Avena fatua (AVEFA); post-emergence, 360 h, Rate 250 g/ha, post-emergence, assessed visually 15 DAA, 100%=total damage, 0%=no damage, read-out: Post-emergence herbicidal activity (percentage phytotoxicity) AVEFA POST): 70%
pest or weed control at 250 g/ha (Avena fatua (AVEFA); pre-emergence, 480 h, Rate 250 g/ha, pre-emergence, assessed visually 20 DAA, 100%=total damage, 0%=no damage, read-out: Pre-emergence herbicidal activity (percentage phytotoxicity) AVEFA PRE): 20%
pest or weed control at 250 g/ha ([2]; post-emergence, 360 h, Rate 250 g/ha, post-emergence, assessed visually 15 DAA, 100%=total damage, 0%=no damage, read-out: Post-emergence herbicidal activity (percentage phytotoxicity) ECHCG POST): 90%
pest or weed control at 250 g/ha ([2]; pre-emergence, 480 h, Rate 250 g/ha, pre-emergence, assessed visually 20 DAA, 100%=total damage, 0%=no damage, read-out: Pre-emergence herbicidal activity (percentage phytotoxicity) ECHCG PRE): 80%
pest or weed control at 250 g/ha (Lolium perenne (LOLPE); post-emergence, 360 h, Rate 250 g/ha, post-emergence, assessed visually 15 DAA, 100%=total damage, 0%=no damage, read-out: Post-emergence herbicidal activity (percentage phytotoxicity) LOLPE POST): 80%
pest or weed control at 250 g/ha (Lolium perenne (LOLPE); pre-emergence, 480 h, Rate 250 g/ha, pre-emergence, assessed visually 20 DAA, 100%=total damage, 0%=no damage, read-out: Pre-emergence herbicidal activity (percentage phytotoxicity) LOLPE PRE): 60%

Cc1cc(-c2ncc(Cl)cc2F)cc(C)c1C1C(=O)CC(CC(=O)NCCF)C1=O (stereo not shown) [Compound B95]
pest or weed control at 250 g/ha ([1]; post-emergence, 360 h, 250 g/ha, post-emergence, 15 DAA, visual assessment (100%=total damage, 0%=no damage), read-out: Post-emergence herbicidal activity (percentage phytotoxicity) ALOMY POST): 100%
pest or weed control at 250 g/ha ([1]; pre-emergence, 480 h, 250 g/ha, pre-emergence, 20 DAA, visual assessment (100%=total damage, 0%=no damage), read-out: Pre-emergence herbicidal activity (percentage phytotoxicity) ALOMY PRE): 100%
pest or weed control at 250 g/ha (Avena fatua (AVEFA); post-emergence, 360 h, 250 g/ha, post-emergence, 15 DAA, visual assessment (100%=total damage, 0%=no damage), read-out: Post-emergence herbicidal activity (percentage phytotoxicity) AVEFA POST): 100%
pest or weed control at 250 g/ha (Avena fatua (AVEFA); pre-emergence, 480 h, 250 g/ha, pre-emergence, 20 DAA, visual assessment (100%=total damage, 0%=no damage), read-out: Pre-emergence herbicidal activity (percentage phytotoxicity) AVEFA PRE): 100%
pest or weed control at 250 g/ha ([2]; post-emergence, 360 h, 250 g/ha, post-emergence, 15 DAA, visual assessment (100%=total damage, 0%=no damage), read-out: Post-emergence herbicidal activity (percentage phytotoxicity) ECHCG POST): 100%
pest or weed control at 250 g/ha ([2]; pre-emergence, 480 h, 250 g/ha, pre-emergence, 20 DAA, visual assessment (100%=total damage, 0%=no damage), read-out: Pre-emergence herbicidal activity (percentage phytotoxicity) ECHCG PRE): 100%
pest or weed control at 250 g/ha (Lolium perenne (LOLPE); post-emergence, 360 h, 250 g/ha, post-emergence, 15 DAA, visual assessment (100%=total damage, 0%=no damage), read-out: Post-emergence herbicidal activity (percentage phytotoxicity) LOLPE POST): 100%
pest or weed control at 250 g/ha (Lolium perenne (LOLPE); pre-emergence, 480 h, 250 g/ha, pre-emergence, 20 DAA, visual assessment (100%=total damage, 0%=no damage), read-out: Pre-emergence herbicidal activity (percentage phytotoxicity) LOLPE PRE): 100%

Cc1cc(-c2ccc(F)cc2)cc(C)c1C1C(=O)CC(CC(=O)NC(C)(C)C#N)C1=O (stereo not shown) [Compound B377]
pest or weed control at 250 g/ha ([1]; post-emergence, 360 h, Rate 250 g/ha, post-emergence, visual assessment 15 DAA, 100%=total damage, 0%=no damage, read-out: Post-emergence herbicidal activity (percentage phytotoxicity) ALOMY POST): 90%
pest or weed control at 250 g/ha ([1]; pre-emergence, 480 h, Rate 250 g/ha, pre-emergence, visual assessment 20 DAA, 100%=total damage, 0%=no damage, read-out: Pre-emergence herbicidal activity (percentage phytotoxicity) ALOMY PRE): 90%
pest or weed control at 250 g/ha (Avena fatua (AVEFA); post-emergence, 360 h, Rate 250 g/ha, post-emergence, visual assessment 15 DAA, 100%=total damage, 0%=no damage, read-out: Post-emergence herbicidal activity (percentage phytotoxicity) AVEFA POST): 100%
pest or weed control at 250 g/ha (Avena fatua (AVEFA); pre-emergence, 480 h, Rate 250 g/ha, pre-emergence, visual assessment 20 DAA, 100%=total damage, 0%=no damage, read-out: Pre-emergence herbicidal activity (percentage phytotoxicity) AVEFA PRE): 90%
pest or weed control at 250 g/ha ([2]; post-emergence, 360 h, Rate 250 g/ha, post-emergence, visual assessment 15 DAA, 100%=total damage, 0%=no damage, read-out: Post-emergence herbicidal activity (percentage phytotoxicity) ECHCG POST): 90%
pest or weed control at 250 g/ha ([2]; pre-emergence, 480 h, Rate 250 g/ha, pre-emergence, visual assessment 20 DAA, 100%=total damage, 0%=no damage, read-out: Pre-emergence herbicidal activity (percentage phytotoxicity) ECHCG PRE): 100%
pest or weed control at 250 g/ha (Lolium perenne (LOLPE); post-emergence, 360 h, Rate 250 g/ha, post-emergence, visual assessment 15 DAA, 100%=total damage, 0%=no damage, read-out: Post-emergence herbicidal activity (percentage phytotoxicity) LOLPE POST): 30%
pest or weed control at 250 g/ha (Lolium perenne (LOLPE); pre-emergence, 480 h, Rate 250 g/ha, pre-emergence, visual assessment 20 DAA, 100%=total damage, 0%=no damage, read-out: Pre-emergence herbicidal activity (percentage phytotoxicity) LOLPE PRE): 80%
